Several values for one entry are separate records, joined by “and”; a condition that tells them apart may be missing. Identical values can stand only once.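 Dose response: 5 concentrations. Exposure: 48 h. Format: 96-well plates. Endpoint: linear interpolation; highest concentration if not reached. GI50 is the concentration that inhibits growth by half. The concentration for full growth arrest is given as TGI.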
Tests used:
Experiment in all cases: NCI-60 cell line screen, 48 h
TK-10 renal = system: TK-10 renal
UO-31 renal = system: UO-31 renal
HCC-2998 colon = system: HCC-2998 colon
KM12 colon = system: KM12 colon
OVCAR-3 ovarian = system: OVCAR-3 ovarian
SF-268 CNS = system: SF-268 CNS
SW-620 colon = system: SW-620 colon
ACHN renal = system: ACHN renal
OVCAR-4 ovarian = system: OVCAR-4 ovarian
SK-MEL-5 melanoma = system: SK-MEL-5 melanoma
A498 renal = system: A498 renal
COLO 205 colon = system: COLO 205 colon
NCI-H23 lung = system: NCI-H23 lung
SF-539 CNS = system: SF-539 CNS
NCI-H460 lung = system: NCI-H460 lung
SR leukemia = system: SR leukemia
LOX IMVI melanoma = system: LOX IMVI melanoma
NCI-H522 lung = system: NCI-H522 lung
HT29 colon = system: HT29 colon
A549 NSCLC = system: A549 NSCLC
RPMI-8226 leukemia = system: RPMI-8226 leukemia
CCRF-CEM leukemia = system: CCRF-CEM leukemia
K-562 leukemia = system: K-562 leukemia
MDA-MB-435 = system: MDA-MB-435
MCF7 breast = system: MCF7 breast
MDA-MB-231 breast = system: MDA-MB-231 breast
HOP-92 NSCLC = system: HOP-92 NSCLC
SK-MEL-2 melanoma = system: SK-MEL-2 melanoma
SF-295 CNS = system: SF-295 CNS
M14 melanoma = system: M14 melanoma
IGROV1 ovarian = system: IGROV1 ovarian
CAKI-1 renal = system: CAKI-1 renal
NCI/ADR-RES ovarian = system: NCI/ADR-RES ovarian
HCT-116 colon = system: HCT-116 colon
U251 CNS = system: U251 CNS
SNB-75 CNS = system: SNB-75 CNS
SK-OV-3 ovarian = system: SK-OV-3 ovarian
MOLT-4 leukemia = system: MOLT-4 leukemia
NCI-H226 lung = system: NCI-H226 lung
RXF 393 renal = system: RXF 393 renal
HOP-62 NSCLC = system: HOP-62 NSCLC
DU-145 prostate = system: DU-145 prostate
HCT-15 colon = system: HCT-15 colon
SK-MEL-28 melanoma = system: SK-MEL-28 melanoma
MALME-3M melanoma = system: MALME-3M melanoma
EKVX NSCLC = system: EKVX NSCLC
SN12C renal = system: SN12C renal
OVCAR-5 ovarian = system: OVCAR-5 ovarian
PC-3 prostate = system: PC-3 prostate
786-0 renal = system: 786-0 renal
UACC-62 melanoma = system: UACC-62 melanoma
T-47D breast = system: T-47D breast
BT-549 breast = system: BT-549 breast
SNB-19 CNS = system: SNB-19 CNS
UACC-257 melanoma = system: UACC-257 melanoma
HL-60(TB) leukemia = system: HL-60(TB) leukemia
HS 578T breast = system: HS 578T breast
OVCAR-8 ovarian = system: OVCAR-8 ovarian

For `CN1CCN(Cc2ccc(NC(=O)c3cncc(C#Cc4cnc5ccc(NC6CCOCC6)nn45)c3)cc2C(F)(F)F)CC1`, the GI50 (TK-10 renal) was 156 nM, the TGI (TK-10 renal) was 759 nM and the GI50 (UO-31 renal) was 584 nM and 235 nM. The TGI (UO-31 renal) was 3050 nM and 749 nM, the GI50 (HCC-2998 colon) was 226 nM and 189 nM and the TGI (HCC-2998 colon) was 2460 nM and 519 nM. For the same compound, the GI50 (KM12 colon) was 5 nM, the TGI (KM12 colon) was 667 nM and 389 nM and the GI50 (OVCAR-3 ovarian) was 135 nM and 70.3 nM. For the same compound, the TGI (OVCAR-3 ovarian) was 752 nM and 300 nM, the GI50 (SF-268 CNS) was 74.3 nM and 42.9 nM and the TGI (SF-268 CNS) was 930 nM and 293 nM. The GI50 (SW-620 colon) was 76.6 nM and 21.3 nM, the TGI (SW-620 colon) was 1640 nM and 167 nM and the GI50 (ACHN renal) was 161 nM and 155 nM. The TGI (ACHN renal) was 736 nM and 965 nM, the GI50 (OVCAR-4 ovarian) was 157 nM and 102 nM and the TGI (OVCAR-4 ovarian) was 5950 nM and 733 nM. The GI50 (SK-MEL-5 melanoma) was 296 nM and 158 nM, the TGI (SK-MEL-5 melanoma) was 1030 nM and 312 nM and the GI50 (A498 renal) was 161 nM and 214 nM. For the same compound, the TGI (A498 renal) was 425 nM and 366 nM, the GI50 (COLO 205 colon) was 24.6 nM and 33.6 nM and the TGI (COLO 205 colon) was 90.7 nM and 127 nM. The GI50 (NCI-H23 lung) was 114 nM, the TGI (NCI-H23 lung) was 529 nM and the GI50 (SF-539 CNS) was 17.6 nM and 17.5 nM. The TGI (SF-539 CNS) was 83.2 nM and 112 nM, the GI50 (NCI-H460 lung) was 62.7 nM and 33.9 nM and the TGI (NCI-H460 lung) was 837 nM and 197 nM. For the same compound, the GI50 (SR leukemia) was 35.5 nM, the TGI (SR leukemia) was 506 nM and 351 nM and the GI50 (LOX IMVI melanoma) was 55.5 nM and 24.8 nM. For the same compound, the TGI (LOX IMVI melanoma) was 140 nM and 172 nM, the GI50 (NCI-H522 lung) was 42.3 nM and 20.2 nM and the TGI (NCI-H522 lung) was 116 nM and 137 nM. For the same compound, the GI50 (HT29 colon) was 115 nM and 70.4 nM, the TGI (HT29 colon) was 506 nM and 501 nM and the GI50 (A549 NSCLC) was 84.1 nM and 74.8 nM. The TGI (A549 NSCLC) was 459 nM and 671 nM, the GI50 (RPMI-8226 leukemia) was 136 nM and 123 nM and the TGI (RPMI-8226 leukemia) was 434 nM and 456 nM. For the same compound, the GI50 (CCRF-CEM leukemia) was 20.5 nM, the GI50 (K-562 leukemia) was 5 nM and the TGI (K-562 leukemia) was 741 nM and 108 nM. The GI50 (MDA-MB-435) was 119 nM and 63 nM, the TGI (MDA-MB-435) was 761 nM and 268 nM and the GI50 (MCF7 breast) was 41.5 nM. For the same compound, the TGI (MCF7 breast) was 543 nM and 377 nM, the GI50 (MDA-MB-231 breast) was 48.2 nM and 19.6 nM and the TGI (MDA-MB-231 breast) was 219 nM and 241 nM. For the same compound, the GI50 (HOP-92 NSCLC) was 36.7 nM and 15.6 nM, the TGI (HOP-92 NSCLC) was 175 nM and 69.4 nM and the GI50 (SK-MEL-2 melanoma) was 95.1 nM and 111 nM. The TGI (SK-MEL-2 melanoma) was 197 nM and 246 nM, the GI50 (SF-295 CNS) was 63.2 nM and 208 nM and the TGI (SF-295 CNS) was 3810 nM and 812 nM. The GI50 (M14 melanoma) was 66.4 nM and 49.4 nM, the TGI (M14 melanoma) was 156 nM and 200 nM and the GI50 (IGROV1 ovarian) was 84.7 nM and 20.8 nM. For the same compound, the TGI (IGROV1 ovarian) was 321 nM and 212 nM, the GI50 (CAKI-1 renal) was 98.7 nM and 39.5 nM and the GI50 (NCI/ADR-RES ovarian) was 2640 nM and 1670 nM. For the same compound, the TGI (NCI/ADR-RES ovarian) was 10900 nM and 4620 nM, the GI50 (HCT-116 colon) was 71.6 nM and 18.3 nM and the TGI (HCT-116 colon) was 265 nM and 455 nM. The GI50 (U251 CNS) was 125 nM and 134 nM, the TGI (U251 CNS) was 610 nM and 349 nM and the GI50 (SNB-75 CNS) was 67.8 nM. The TGI (SNB-75 CNS) was 198 nM and 22.4 nM, the GI50 (SK-OV-3 ovarian) was 116 nM and the TGI (SK-OV-3 ovarian) was 439 nM. The GI50 (MOLT-4 leukemia) was 42 nM, the TGI (MOLT-4 leukemia) was 1140 nM and 612 nM and the GI50 (NCI-H226 lung) was 67.5 nM. For the same compound, the TGI (NCI-H226 lung) was 5790 nM, the GI50 (RXF 393 renal) was 58.9 nM and 39.5 nM and the TGI (RXF 393 renal) was 174 nM and 180 nM. For the same compound, the GI50 (HOP-62 NSCLC) was 59.9 nM and 43.3 nM, the TGI (HOP-62 NSCLC) was 507 nM and 300 nM and the GI50 (DU-145 prostate) was 125 nM and 60.9 nM. For the same compound, the TGI (DU-145 prostate) was 2160 nM and 431 nM, the GI50 (HCT-15 colon) was 324 nM and 205 nM and the TGI (HCT-15 colon) was 5100 nM and 667 nM. For the same compound, the GI50 (SK-MEL-28 melanoma) was 179 nM and 155 nM, the TGI (SK-MEL-28 melanoma) was 986 nM and 344 nM and the GI50 (MALME-3M melanoma) was 99.6 nM and 78 nM. For the same compound, the TGI (MALME-3M melanoma) was 588 nM and 246 nM, the GI50 (EKVX NSCLC) was 98.8 nM and 102 nM and the TGI (EKVX NSCLC) was 903 nM and 591 nM. For the same compound, the GI50 (SN12C renal) was 24.1 nM and 21.5 nM, the TGI (SN12C renal) was 804 nM and 549 nM and the GI50 (OVCAR-5 ovarian) was 125 nM and 149 nM. The TGI (OVCAR-5 ovarian) was 752 nM and 773 nM, the GI50 (PC-3 prostate) was 108 nM and 114 nM and the TGI (PC-3 prostate) was 5340 nM and 1160 nM. For the same compound, the GI50 (786-0 renal) was 202 nM and 90 nM, the TGI (786-0 renal) was 742 nM and 355 nM and the GI50 (UACC-62 melanoma) was 120 nM and 145 nM. The TGI (UACC-62 melanoma) was 685 nM and 323 nM, the GI50 (T-47D breast) was 165 nM and 167 nM and the TGI (T-47D breast) was 1480 nM and 973 nM. For the same compound, the GI50 (BT-549 breast) was 120 nM and 275 nM, the TGI (BT-549 breast) was 770 nM and 860 nM and the GI50 (SNB-19 CNS) was 137 nM and 174 nM. For the same compound, the TGI (SNB-19 CNS) was 4370 nM and 882 nM, the GI50 (UACC-257 melanoma) was 203 nM and 191 nM and the TGI (UACC-257 melanoma) was 1420 nM and 614 nM. The GI50 (HL-60(TB) leukemia) was 139 nM and 43.2 nM, the TGI (HL-60(TB) leukemia) was 384 nM and 336 nM and the GI50 (HS 578T breast) was 54.2 nM and 31.7 nM. The TGI (HS 578T breast) was 368 nM and 335 nM, the GI50 (OVCAR-8 ovarian) was 107 nM and 65.2 nM and the TGI (OVCAR-8 ovarian) was 645 nM and 495 nM.

In the case of `c1ccc(-c2c(-c3ccccc3)[n+](Cc3ccc4ccccc4c3)c(-c3ccccc3)n2Cc2ccc3ccccc3c2)cc1`, the GI50 (UO-31 renal) is reported as 672 nM, the TGI (UO-31 renal) is reported as 2940 nM and the GI50 (SW-620 colon) is reported as 326 nM. It also gave a TGI (SW-620 colon) of 1380 nM, a GI50 (ACHN renal) of 401 nM and a TGI (ACHN renal) of 1390 nM. It also gave a GI50 (NCI-H23 lung) of 224 nM, a TGI (NCI-H23 lung) of 727 nM and a GI50 (RPMI-8226 leukemia) of 56.8 nM. The TGI (RPMI-8226 leukemia) was 505 nM, the GI50 (CCRF-CEM leukemia) was 241 nM and the TGI (CCRF-CEM leukemia) was 1240 nM. For the same compound, the GI50 (K-562 leukemia) was 181 nM, the TGI (K-562 leukemia) was 1230 nM and the GI50 (HOP-92 NSCLC) was 158 nM. The TGI (HOP-92 NSCLC) was 592 nM, the GI50 (MOLT-4 leukemia) was 285 nM and the TGI (MOLT-4 leukemia) was 1130 nM. The GI50 (DU-145 prostate) was 365 nM, the TGI (DU-145 prostate) was 1430 nM and the GI50 (PC-3 prostate) was 200 nM. The TGI (PC-3 prostate) was 862 nM, the GI50 (786-0 renal) was 352 nM and the TGI (786-0 renal) was 1860 nM. The GI50 (HL-60(TB) leukemia) was 150 nM, the TGI (HL-60(TB) leukemia) was 400 nM and the GI50 (HS 578T breast) was 370 nM. For the same compound, the TGI (HS 578T breast) was 1830 nM.

From PubChem BioAssay (NCI)
